For experiment [1], the system named is BaGST2. Kind of experiment: Substrate specificity (glutathione transferase and peroxidase assays). The experiment is classed as biochemical, Biomphalaria alexandrina. From the text:
(§1) One unit of transferase activity is defined as the amount of enzyme which catalyzes the formation of 1 μmol of thioether per min, and the specific activity is expressed as μmol/min/mg protein.
(§2) Enzyme activity with various aromatic substrates, namely, bromosulfophthalein (BSP), 1, 2-dichloro-4-nitrobenzene (DCNB), p-nitrophenethyl-bromide, and ethacrynic acid (EA), was examined as described.
(§3) Substrate specificities of BaGST2 and BaGST3 toward several compounds were studied.

In experiment [2] the test system is BaGST3. The description is as above. The experiment is classed as biochemical, Biomphalaria alexandrina.
Text: as §1, §2, §3

For experiment [3], the system named is BaGST2. The experiment is described as follows: Inhibition of GSH-CDNB-conjugating activity and type of inhibition. The experiment is classed as biochemical, Biomphalaria alexandrina. Conditions: for Type of inhibition / Vmax in the presence of inhibitor: CDNB as substrate; for Type of inhibition: inhibitor at less than I20; for Vmax in the presence of inhibitor: inhibitor at less than I20, without inhibitor 75.5; for IC50: GSH-CDNB-conjugating activity, standard assay conditions. On the procedure:
as §1
(§4) The IC50 values were determined according to Yalcin [18]. The IC50 values were determined by plotting percentage activity values versus log inhibitor concentrations.
(§5) The type of inhibition of BSP, hematin, and CB was also examined by studying the effect of constant concentration (less than IC20) of each inhibitor on the Km (CDNB) and Vmax of BaGST2 and BaGST3.

Experiment [4] has as its system BaGST3. The description is as above. The experiment is classed as biochemical, Biomphalaria alexandrina. Conditions: for IC50: GSH-CDNB-conjugating activity, standard assay conditions; for Type of inhibition / Vmax in the presence of inhibitor: CDNB as substrate; for Type of inhibition: inhibitor at less than I20; for Vmax in the presence of inhibitor: inhibitor at less than I20, without inhibitor 48.8. The procedure:
as §1, §4, §5

The target of experiment [5] is Biomphalaria alexandrina glutathione transferase BaGST3 (Biomphalaria alexandrina). The experiment is described as follows: SEC; Sephadex G-75 column (90 x 1.4 cm), 20 mM Tris-HCl pH 8.0, 100 mM NaCl, 4 °C; calibrated with standard proteins; apparent MW about 45 kDa compared with the subunit MW of 23.6 kDa by SDS-PAGE. (In general: Size exclusion chromatography separates by hydrodynamic size, large species first.)

For experiment [6], the system named is BaGST2. The experiment is described as follows: Kinetic studies with varied GSH and CDNB concentrations. It is filed as biochemical, Biomphalaria alexandrina. Conditions: 25 °C, substrate varied (CDNB 0.01-1.5 mM, GSH 0.025-1.5 mM).
Text: as §1

Experiment [7] has as its system BaGST3. The description is as above. It is filed as biochemical, Biomphalaria alexandrina.
Text: as §1

One may read the IC50 as the concentration that inhibits the measured activity by half. A higher IC50 goes with weaker potency in that assay. As usually defined, the stoichiometry N is the number of molecules, sites or subunits per partner or assembly.

Read-outs that look alike come from different tables or passages of the source.

Consider `CC(C)(OO)c1ccccc1` [CuOOH, cumene hydroperoxide], for which the “Activity toward substrate (in words)” value in the experiment on BaGST2 [1] (BaGST2) and with BaGST3 [2] (BaGST3) was “peroxidase activity” throughout. The “Substrate specificity (specific activity)” value in the experiment on BaGST2 [1] (BaGST2, means ± SD, n ≥ 4) was 0.60 ± 0.02 µmol/min/mg; with BaGST3 [2] (BaGST3, means ± SD, n ≥ 4) it was 1.40 ± 0.03 µmol/min/mg.
For the molecule `O=C1OC(c2ccc(O)c(S(=O)(=O)O)c2)(c2ccc(O)c(S(=O)(=O)O)c2)c2c(Br)c(Br)c(Br)c(Br)c21` [BSP, bromosulfophthalein], in the experiment on BaGST2 [1] (BaGST2), the “Activity toward substrate (in words)” value is reported as “did not show any detectable activity”. Besides, the “Activity toward substrate (in words)” value in the experiment on BaGST3 [2] (BaGST3) is “did not show any detectable activity”. For the same molecule, in the experiment on BaGST2 [3], the Type of inhibition result is listed as “Competitive”, the “Vmax in the presence of inhibitor” value is 75.5 μmol/min/mg protein and it took 80.4 µM to reach half-maximal inhibition (IC50). For the same molecule, in the experiment with BaGST3 [4], the IC50 was found to be 95 µM.
`C=C(CC)C(=O)c1ccc(OCC(=O)O)c(Cl)c1Cl` [EA, ethacrynic acid]: the “Activity toward substrate (in words)” value in the experiment on BaGST2 [1] (BaGST2) and with BaGST3 [2] (BaGST3) was “high activity” throughout. Besides, the “Substrate specificity (specific activity)” value in the experiment with BaGST2 [1] (BaGST2, means ± SD, n ≥ 4) was 3.80 ± 0.11 µmol/min/mg; in the experiment with BaGST3 [2] (BaGST3, means ± SD, n ≥ 4), 2.60 ± 0.10 µmol/min/mg.
With `Nc1c(S(=O)(=O)O)cc(Nc2ccc(Nc3nc(Cl)nc(Nc4ccccc4S(=O)(=O)O)n3)c(S(=O)(=O)O)c2)c2c1C(=O)c1ccccc1C2=O` [CB, Cibacron Blue], in the experiment with BaGST2 [3], the Type of inhibition entry is on record as “Competitive”, the “Vmax in the presence of inhibitor” value was 75.5 μmol/min/mg protein and the half-inhibitory concentration (IC50) turned out to be 2.35 µM. Also, in the experiment with BaGST3 [4], the Type of inhibition result was “Competitive”, the “Vmax in the presence of inhibitor” value turned out to be 48.8 μmol/min/mg protein and half-maximal inhibition (IC50) was put at 0.58 µM.
Regarding `O=[N+]([O-])c1ccc(Cl)c(Cl)c1` [DCNB, 1,2-dichloro-4-nitrobenzene], the “Activity toward substrate (in words)” value in the experiment on BaGST2 [1] (BaGST2) and in the experiment with BaGST3 [2] (BaGST3) was “low activity” throughout. The “Substrate specificity (specific activity), DCNB × 10^3” value in the experiment with BaGST2 [1] (BaGST2, means ± SD, n ≥ 4) is reported as 30 ± 1.5 μmol/min/mg × 10^3; in the experiment on BaGST3 [2] (BaGST3, means ± SD, n ≥ 4), 10 ± 0.6 μmol/min/mg × 10^3.
Regarding `CCCCSCC(NC(=O)CCC(N)C(=O)O)C(=O)NCC(=O)O` (stereo not drawn) [S-butyl-GSH], the values for the IC50 in the experiment with BaGST2 [3] and with BaGST3 [4] were 69.1 µM and 51.2 µM, respectively.
As for `O=[N+]([O-])c1ccc(CCBr)cc1` [p-Nitro-phenethylbromide, p-nitrophenethyl-bromide], the “Activity toward substrate (in words)” value in the experiment with BaGST2 [1] (BaGST2) and with BaGST3 [2] (BaGST3) was “low activity” each time. Further, the “Substrate specificity (specific activity)” value turned out to be 2.70 ± 0.13 µmol/min/mg in the experiment with BaGST2 [1] (BaGST2, means ± SD, n ≥ 4) and 6.00 ± 0.20 µmol/min/mg in the experiment with BaGST3 [2] (BaGST3, means ± SD, n ≥ 4).
On to `CCCCCCSC[C@H](NC(=O)CC[C@H](N)C(=O)O)C(=O)NCC(=O)O` [S–hexyl-GSH, S-hexyl-GSH], for which the 50% inhibitory concentration (IC50) amounted to 36.3 µM with BaGST2 [3] and 19.5 µM in the experiment with BaGST3 [4].
Consider “Biomphalaria alexandrina glutathione transferase BaGST3 (enzyme)”, for which, in experiment [5], the stoichiometry N came out at 2.
`N[C@@H](CCC(=O)N[C@@H](CS)C(=O)NCC(=O)O)C(=O)O` [GSH, γ-L-glutamyl-L-cysteinyl-glycine]: the Km with BaGST2 [6] was 220 µM; in the experiment with BaGST3 [7] (read-out: Km (GSH), high GSH concentrations, non-Michaelian, GSH 0.5-5 mM) it was 610 µM; in the experiment on BaGST3 [7] (read-out: Km (GSH), low GSH concentrations, non-Michaelian, GSH 0.025-0.5 mM), 150 µM.
As to `C=CC1=C(C)c2cc3[n-]c(cc4[n-]c(cc5nc(cc1n2)C(C)=C5C=C)c(C)c4CCC(=O)O)c(CCC(=O)O)c3C.O.[Fe+2]` [Hematin, hematin], in the experiment on BaGST2 [3], the Type of inhibition result is given as “Mixed”, the “Vmax in the presence of inhibitor” value is given as 13.7 μmol/min/mg protein and it took 1.35 µM to reach half-maximal inhibition (IC50). Further, in the experiment with BaGST3 [4], the Type of inhibition result is “Noncompetitive”, the “Vmax in the presence of inhibitor” value stood at 15.8 μmol/min/mg protein and the half-inhibitory concentration (IC50) came out at 0.46 µM.
For `O=[N+]([O-])c1ccc(Cl)c([N+](=O)[O-])c1` [CDNB, 1-chloro-2,4-dinitrobenzene], the Km in the experiment on BaGST2 [6] was 3330 µM; in the experiment with BaGST3 [7] (25 °C, CDNB varied 0.01-1.5 mM, read-out: Km), 50 µM. In addition, the “Specific activity toward CDNB” value was found to be 19.0 μmol/min/mg protein in the experiment on BaGST2 [1] (BaGST2 after GSH-Sepharose, 146-fold purification) and 45.2 μmol/min/mg protein with BaGST3 [2] (BaGST3 after GSH-Sepharose, 346-fold purification).
As to `N[C@@H](CCC(=O)N[C@@H](CSCc1ccc(Br)cc1)C(=O)NCC(=O)O)C(=O)O` [S-P-bromobenzyl-GSH], the IC50 in the experiment on BaGST2 [3] is 9.3 µM; in the experiment with BaGST3 [4] it was 34.9 µM.

(Values after paper PMC9259769, “Biochemical characterization and peptide mass fingerprinting of two glutathione transferases from Biomphalaria alexandrina snails (Gastropoda: Planorbidae)” (Journal of Genetic Engineering & Biotechnology, 2022).)
